From patent US5593969A, “Lipid-A analogs: monosaccharide and dissaccharide compounds for inhibiting binding of lipid A receptors to lipid A receptors” (IGEN Incorporated, priority 1993, dated 1997) come the findings set out here.

One assay concerns Pseudomonas aeruginosa. The class given is in vivo, Pseudomonas aeruginosa in ICR mice. The settings on record: Lipid-A at 1 μg/mouse.
The next assay concerns tumor cells. Put plainly: Antitumor activity (Meth A fibrosarcoma, melanoma or Pro b cells). In kind it is in vivo. The settings on record: 250, 100 or 10 μg/mouse or up to 10 μg/kg, intravenously or intratumorly.
Assay [1] is described as follows: Serum antibody titre on Lipid-A by ELISA after liposome immunization. In kind it is in vivo, Balb/c mice. The following applies: Lipid-A liposomes with HEL[105-120], HEL primed. Here is the method:
i) A stock solution of lipids for the formation of liposomes was prepared by mixing 10 mM solutions of dimyristoyl phosphatidyl choline, dicetyl phosphate and cholesterol (all from Sigma Chemicals) in the ratio 1.0:0.11:0.75. This stock was aliquotted into 1.0 ml volumes and dried under argon and stored at -20° C. until used.
ii) 500 μg of immunogen 3D dissolved in CHCl3 was dried into a 50 ml round bottomed flask on a rotary evaporator. One aliquot of the lipid stock was dissolved in 1 ml of CHCl3 :MeOH (9:1) and added to the dried immunogen 3D. The dissolved lipids were thoroughly mixed then dried together on a rotary evaporator under argon until all solvent had been removed and then for an additional 15 mins. The flask was then placed in a high vacuum dessicator for 2 hrs. 1.0 ml of swelling solution, approximately 0.9% NaCl, was added to the dry lipid film with 0.5 g of glass beads and mixed vigorously by swirling and vortexing. Liposomes were allowed to swell at room temperature overnight. […]
Mice which were primed with HEL and immunized with Immunogen 3D("Imm-3D") and Lipid-A incorporated separately into liposomes along with the peptide HEL[105-120] […] Seven days after the final immunization, serum samples were taken and the titres of IgG and IgM anti-Lipid-A antibodies determined separately by ELISA. […]

For the substance Lipid-A, the “protective activity against gram-negative bacteria” value in the assay on Pseudomonas aeruginosa is recorded as “exhibits protective activity”. In the assay with tumor cells, the tumor growth result was “retarded or prevented”. Also, in assay [1], the “IgG antibody responses to the eliciting antigen” value is “enhanced IgG antibody responses”.
